According to publication PMC2950128, “Protein Evolution by Molecular Tinkering: Diversification of the Nuclear Receptor Superfamily from a Ligand-Dependent Ancestor” (PLoS Biology, 2010):

Target: T1, AqNR1-LBD (Amphimedon queenslandica, UniProt B1A9Z2)
T1 construct: fusion kept for serum incubation), E. coli BL21(DE3) pLysS
Test: lipid extraction and negative-ion ESI/MS of purified LBD
Format: binding
Settings: co-purified from E. coli (also after complete serum); identified by mass as 18:0, chain isomer not told

T1 sequence (B1A9Z2 entry or part of it): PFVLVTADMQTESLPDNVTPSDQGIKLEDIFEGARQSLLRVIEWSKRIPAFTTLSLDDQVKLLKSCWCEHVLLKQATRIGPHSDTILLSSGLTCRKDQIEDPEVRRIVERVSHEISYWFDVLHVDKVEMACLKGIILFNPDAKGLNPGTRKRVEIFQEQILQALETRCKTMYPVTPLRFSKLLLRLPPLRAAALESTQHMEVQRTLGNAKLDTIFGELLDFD

For `CCCCCCCCCCCCCCCCCC(=O)O` [18∶0 fatty acid], the “lipid extraction and negative-ion ESI/MS of purified LBD” value was “bound an array of bacterial free fatty acids (FAs)”.
